The record followed here is patent US20150119363A1, “METHODS OF TREATING BACTERIAL INFECTIONS” (Rampex Pharmaceuticals, Inc., priority 2012, published 2015).

Common to all, as to assay: Inhibition of biapenem hydrolysis by bacterial lysate
Holding throughout (format): biochemical

In experiment [1] the target is T1, KPC-2 (Klebsiella pneumoniae KP1004 lysate) (Klebsiella pneumoniae, UniProt Q9F663).
T1 construct: Lysates were prepared from bacteria expressing various β-lactamases as a source of enzymes; endogenous in cells; host or cells: Klebsiella pneumoniae strains KP1004 and KP1008 (freeze-thaw lysate supernatants)
T1 sequence (Q9F663 25-293 limits assumed): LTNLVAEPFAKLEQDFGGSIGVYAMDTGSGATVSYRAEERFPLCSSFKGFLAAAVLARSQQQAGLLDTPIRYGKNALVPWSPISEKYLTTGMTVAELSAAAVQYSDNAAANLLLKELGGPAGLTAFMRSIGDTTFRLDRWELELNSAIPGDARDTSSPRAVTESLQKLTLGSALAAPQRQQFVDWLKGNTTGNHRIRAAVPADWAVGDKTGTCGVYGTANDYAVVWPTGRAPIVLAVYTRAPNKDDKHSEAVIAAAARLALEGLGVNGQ
As for the experimental part:
(§1) The activity of β-lactamase inhibitors to inhibit hydrolysis of biapenem was studied. Lysates were prepared from bacteria expressing various β-lactamases as a source of enzymes. Bacterial lysates were prepared as follows. A single colony from the fresh overnight plate was transferred to 5 mL of LB broth and grown to OD600=0.6-0.8. Next, this culture was transferred to 500 mL of LB and grown to OD600=0.7-0.9. Cells were pelleted by centrifugation at 5000 RPM (JA-14 rotor) for 15 minutes at room temperature. The pellet was resuspended in 10 mL of PBS. Five freeze-thaw cycles by putting cells at −20° C. and thawing them at the room temperature were next applied. After the last thaw step cells were spun down at 18K for 30 minutes and the supernatant was collected. This lysate was stored at −20° C.
(§2) Next, the activity of bacterial lysates was optimized for biapenem cleavage as follows. 50 μl of buffer A (50 mM Sodium Phosphate pH=7; 0.5% glucose, 1 mM MgCl2) was added to each well of 96-well UV-transparent plate. 50 μl of lysate was titrated vertically in 96-well plate column to generate 2-fold lysate dilutions. 100 μl of buffer A was added to each well, placed in plate reader at 37° C. and incubated for 15 minutes. 50 μl of 50 μg/mL solutions of biapenem in buffer A (pre-incubated at 37° C. for 15 minutes) were added to each well. Hydrolysis of biapenem was measured at 296 nm. This experiment was used to determine the optimal lysate dilution which produced a linear curve of relative UV signal that decreased to approximately OD=0.3-0.5 over 1 hour.
(§3) Finally, the potency of cyclic boronic acid derivative to inhibit the cleavage of biapenem cleavage by bacterial lysates was determined. 100 μl of buffer A (50 mM Sodium Phosphate pH=7; 0.5% glucose, 1 mM MgCl2) was added to each well of 96-well UV-transparent plate. 50 μl of 6× cyclic boronic acid derivative solution in buffer A was titrated vertically in 96-well plate column to generate 3-fold dilutions. 50 μl of diluted lysate in buffer A (optimal dilution is determined in experiment above) was added, and the plate was incubated in the plate reader at 37° C. for 15 minutes. 50 μl of 50 μg/mL solution of biapenem in buffer A (pre-incubated at 37° C. for 15 minutes) were next added to each well and hydrolysis of biapenem was recorded at 296 nm. EC50 of inhibition was determined by plotting the rate of biapenem cleavage vs. cyclic boronic acid derivative concentration.

For experiment [2], the target named is T2, KPC-2 (Klebsiella pneumoniae KP1008 lysate) (Klebsiella pneumoniae, UniProt Q9F663).
T2 construct: Lysates were prepared from bacteria expressing various β-lactamases as a source of enzymes; endogenous in cells; host or cells: Klebsiella pneumoniae strains KP1004 and KP1008 (freeze-thaw lysate supernatants)
T2 sequence (Q9F663 25-293 limits assumed): as above
As for the experimental part:
as §1, §2, §3

The target of experiment [3] is T3, KPC-3 (Escherichia coli EC1007 lysate) (Klebsiella pneumoniae, UniProt Q9F663, H272Y).
T3 construct: Lysates were prepared from bacteria expressing various β-lactamases as a source of enzymes; endogenous in cells; host or cells: Escherichia coli strain EC1007 (freeze-thaw lysate supernatant)
T3 sequence (Q9F663 25-293 H272Y): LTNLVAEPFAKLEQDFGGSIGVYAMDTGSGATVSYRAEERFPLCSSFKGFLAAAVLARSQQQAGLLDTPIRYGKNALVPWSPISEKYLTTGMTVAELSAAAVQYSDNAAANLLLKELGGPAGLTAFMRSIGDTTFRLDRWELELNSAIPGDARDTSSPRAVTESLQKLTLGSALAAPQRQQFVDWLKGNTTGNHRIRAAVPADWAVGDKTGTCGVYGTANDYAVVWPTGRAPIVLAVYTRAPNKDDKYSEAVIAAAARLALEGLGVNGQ
Particulars: EC1007 KPC-3 lysate; read-out: IC50 (μg/mL) of inhibition of biapenem hydrolysis. As for the experimental part: as §1, §2, §3

Experiment [4] has as its target T4, SME-2 (Serratia marcescens SM1000 lysate) (Serratia marcescens, UniProt P52682).
T4 construct: Lysates were prepared from bacteria expressing various β-lactamases as a source of enzymes
Particulars: SM1000 SME-2 lysate; read-out: IC50 (μg/mL) of inhibition of biapenem hydrolysis. As for the experimental part:
as §1, §2, §3

T4 sequence (P52682 28-294 limits assumed): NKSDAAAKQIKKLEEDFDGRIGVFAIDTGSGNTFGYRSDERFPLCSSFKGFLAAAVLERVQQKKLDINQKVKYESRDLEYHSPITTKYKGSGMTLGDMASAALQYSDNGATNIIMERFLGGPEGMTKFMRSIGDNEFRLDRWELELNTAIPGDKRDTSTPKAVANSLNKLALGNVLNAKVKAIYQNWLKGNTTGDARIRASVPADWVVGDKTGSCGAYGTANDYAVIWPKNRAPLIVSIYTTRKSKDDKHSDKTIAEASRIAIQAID

With `O=C(O)C[C@@H]1CC[C@H](NC(=O)Cc2cccs2)B(O)O1` [Compound 5, 2-((3R,6S)-2-hydroxy-3-(2-(thiophen-2-yl)acetamido)-1,2-oxaborinan-6-yl)acetic acid], the IC50 in experiment [1] was under 337 nM; in experiment [2], 337 to 3370 nM; in experiment [3], under 337 nM; in experiment [4], under 337 nM.
